Laboratory results taken from US20230272390A1, “COMPOSITIONS AND METHODS FOR HEMOGLOBIN PRODUCTION” (THE CHILDREN'S HOSPITAL OF PHILADELPHIA, priority 2020, published 2023).

Tests used:
ZNF410 [1] = assay: RNA-seq in ZNF410 depleted differentiated HUDEP-2 cells; type: cell-based, human; conditions: vs non-targeting sgRNA
Procedure: HUDEP-2 cells were cultured and differentiated as described (Kurita, et al. (2013) PLoS One 8:e59890). Briefly, StemSpan™ Serum-Free Expansion Medium (SFEM) supplemented with 50 ng/ml human stem cell factor (SCF), 10 μM dexamethasone, 1 μg/ml doxycycline, 3 IU/ml erythropoietin and 1% penicillin/streptomycin was utilized for routine cell maintenance. Cell density was kept at 0.1-1×10^6/ml. HUDEP-2 cells were differentiated for 6-7 days in IMDM supplemented with 50 ng/ml human SCF, 3 IU/ml erythropoietin, 2.5% fetal bovine serum, 250 μg/ml holo-transferrin, 10 ng/ml heparin, 10 μg/ml insulin, 1 μg/ml doxycycline and 1% penicillin/streptomycin.
Lentivirus was produced as described (Grevet, et al. (2018) Science 361:285-290). Briefly, 10-20 μg of expression vectors, 5-10 μg of pVSVG (pMD2.G) and 7.5-15 μg of psPAX2 package plasmids, and 80 μl of 1 mg/ml polyethylenimine (PEI) were mixed, incubated for 15-20 minutes, and added to HEK293T cells grown in 10 cm plates to above 90% confluence. Media were replaced 6-8 hours post transfection, virus was collected 24 hours and 48 hours post-transfection and pooled. For infection, virus-containing supernatant was mixed with the indicated cell lines with 8 μg/ml polybrene and 10 mM HEPES, and then spun at 2250 rpm for 1.5 hours at room temperature. Infected HUDEP-2 cells were selected for mCherry+ or GFP+ cell sorting at 48 hours post-infection.
(§1) Total RNAs were purified as described above. Sequencing libraries were then constructed using 100 ng of purified total RNA using the ScriptSeg™ Complete Kit (Illumina cat #BHMR1224) according to manufacturer's protocol. RNA was subjected to rRNA depletion using the Ribo-Zero™ removal reagents and fragmented. First strand cDNA was synthesized using a 5′ tagged random hexamer, and reversely transcribed, followed by annealing of a 5′ tagged, 3′-end blocked terminal-tagged oligo for second strand synthesis. The Di-tagged cDNA fragments were purified, barcoded, and PCR-amplified for 15 cycles.
(§2) The size and quality of each library were evaluated by Bioanalyzer 2100 (Agilent Technologies, Santa Clara, Calif.), and quantified using qPCR. Libraries were sequenced in paired-end mode on a NextSeq 500 instrument to generate 2×76 bp reads using Illumina-supplied kits. The sequence reads were processed using the ENCODE3 long RNA-seq pipeline (encodeproject.org/pipelines/ENCPL002LPE/). In brief, reads were mapped to the human genome (hg38 assembly) using STAR, followed by RSEM for gene quantifications.
(§3) The normalized FPKM (fragments per kilo base per million mapped reads) for each gene was averaged in 2 replicates and then filtered to keep those with average FPKM at least 10 in both HUDEP-2 cells and primary erythroblasts, resulting in ˜5000 high abundant genes each cell type for further analysis. Log2 fold-change was calculated from FPKM of sgRNA targeting ZNF410 compared to control sgRNA (non-targeting sgRNA) using the DESeq2 method, and top changed genes were selected with fold-change at least 1.5 and p-value<0.05. Commonly changed genes in both independent sgRNAs were considered to be significant. Scatter plots were generated using ggplot2 in RStudio for all expressed genes (FPKM>5).
(§4) ZNF410 functions as a transcriptional activator (Benanti, et al. (2002) Mol. Cell Biol., 22:7385-7397). To understand how ZNF410 regulates the transcription of γ-globin genes, RNA-seq experiments were performed in ZNF410 depleted differentiated HUDEP-2 cells and primary human erythroblasts.

ZNF410 [2] = assay: RNA-seq in ZNF410 depleted primary human erythroblasts (CD34+ HSPC derived); type: cell-based; conditions: primary CD34+ cells (erythroblasts), vs non-targeting sgRNA
Procedure: Primary human CD34+ HSPCs from mobilized peripheral blood were purchased from the Fred Hutchinson Cancer Research Center. Human CD34+ HSPCs were differentiated using a three-phase culture system as described (Grevet, et al. (2018) Science 361:285-290). Briefly, IMDM supplemented with 3 IU/ml erythropoietin, 2.5% human male AB serum, 10 ng/ml heparin, and 10 μg/ml insulin was used as base medium. For phase I medium, 100 ng/ml human SCF, 5 ng/ml IL-3, and 250 μg/ml holo-transferrin were supplemented. For phase II medium, 100 ng/ml human SCF and 250 μg/ml holo-transferrin were added. For phase III medium, 1.25 mg/ml holo-transferrin was supplemented.
Commercial sgRNAs were purchased from IDT (Coralville, Iowa) or Synthego (Menlo Park, Calif.). To assemble the RNP complexes, 100 pmol sgRNA and 50 pmol SpCas9 protein (from IDT) were incubated at room temperature for 15 minutes. CD34+ HSPCs (50k-100k) at Day 3-4 of phase I culture were electroporated using P3 Primary Cell 4D Nucleofector™ X Kit (from Lonza) with the program DZ100 (Bak, et al. (2018) Nat. Protoc., 13:358-376).
as §1, §2, §3, §4

| Substance | log2(sgRNA/NT) AC092490.1 transcript (ZNF410 [1]) | log2(sgRNA/NT) AC104389.5 transcript (ZNF410 [1]) | log2(sgRNA/NT) AK1 transcript (ZNF410 [1]) | log2(sgRNA/NT) CD63 transcript (ZNF410 [1]) | log2(sgRNA/NT) CHD4 transcript (ZNF410 [1]) | log2(sgRNA/NT) CKB transcript (ZNF410 [1]) | log2(sgRNA/NT) FOS transcript (ZNF410 [1]) | log2(sgRNA/NT) H1F0 transcript (ZNF410 [1]) | log2(sgRNA/NT) HBG1/2 transcript (ZNF410 [1]) | log2(sgRNA/NT) PRG2 transcript (ZNF410 [1]) | log2(sgRNA/NT) S100A10 transcript (ZNF410 [1]) | log2(sgRNA/NT) SCARNA3 transcript (ZNF410 [1]) | log2(sgRNA/NT) TUBA1A transcript (ZNF410 [1]) | log2(sgRNA/NT) AC092490.1 transcript (ZNF410 [2]) | log2(sgRNA/NT) ACSL6 transcript (ZNF410 [2]) | log2(sgRNA/NT) CBX6 transcript (ZNF410 [2]) | log2(sgRNA/NT) CHD4 transcript (ZNF410 [2]) | log2(sgRNA/NT) HBG1/2 transcript (ZNF410 [2]) | log2(sgRNA/NT) HSPB1 transcript (ZNF410 [2]) | log2(sgRNA/NT) PAFAH1B3 transcript (ZNF410 [2]) | other results |
| --- | --- | --- | --- | --- | --- | --- | --- | --- | --- | --- | --- | --- | --- | --- | --- | --- | --- | --- | --- | --- | --- |
| ZNF410 sgRNA#1: sgRNA targeting the DNA-binding domain of ZNF410, GAACCACCAGATGTTTTCGG (SEQ ID NO: 4) (listed as DNA, chemistry not given here) | −1.45 | 3.95 | 1.99 | 1.90 | −0.99 | 2.44 | −1.32 | 2.41 | 4.26 | 2.09 | −1.60 | −0.89 | −1.06 | −1.50 | −1.67 | −1.56 | −0.93 | 1.47 | 2.01 | 1.35 | log2(sgRNA/NT) ATF5 transcript (ZNF410 [1]): 1.65; log2(sgRNA/NT) GLIPR2 transcript (ZNF410 [1]): −1.14; log2(sgRNA/NT) MIF transcript (ZNF410 [1]): 1.92; log2(sgRNA/NT) PPP4R1 transcript (ZNF410 [1]): −0.95; log2(sgRNA/NT) RF00019 transcript (ZNF410 [1]): −2.43; log2(sgRNA/NT) TMCC2 transcript (ZNF410 [1]): −1.18; log2(sgRNA/NT) TMSB10 transcript (ZNF410 [1]): 1.79; log2(sgRNA/NT) COA4 transcript (ZNF410 [2]): 1.30; log2(sgRNA/NT) DYNLT1 transcript (ZNF410 [2]): 1.27; log2(sgRNA/NT) GPCPD1 transcript (ZNF410 [2]): −0.93; log2(sgRNA/NT) ISOC2 transcript (ZNF410 [2]): 1.34; log2(sgRNA/NT) PKN1 transcript (ZNF410 [2]): 1.32; log2(sgRNA/NT) PRDX5 transcript (ZNF410 [2]): −1.00; log2(sgRNA/NT) RPS19BP1 transcript (ZNF410 [2]): 1.42; log2(sgRNA/NT) SELENOW transcript (ZNF410 [2]): 1.55; log2(sgRNA/NT) SMOX transcript (ZNF410 [2]): −1.45; log2(sgRNA/NT) SPC25 transcript (ZNF410 [2]): −0.93; log2(sgRNA/NT) STUB1 transcript (ZNF410 [2]): 1.46; log2(sgRNA/NT) TMCC2 transcript (ZNF410 [2]): −2.01; log2(sgRNA/NT) ZNF410 transcript (ZNF410 [2]): −1.49 |
| ZNF410 sgRNA#2: sgRNA targeting the DNA-binding domain of ZNF410, CTCATCAGTGCCAAGTCTGT (SEQ ID NO: 5) (listed as DNA, chemistry not given here) | −1.50 | 4.01 | 1.83 | 1.75 | −1.23 | 2.24 | −1.88 | 2.13 | 4.28 | 2.17 | −1.59 | −1.30 | −1.07 | −1.47 | −1.47 | −2.01 | −1.08 | 1.75 | 2.15 | 1.40 | log2(sgRNA/NT) PLA2G6 transcript (ZNF410 [1]): −1.01; log2(sgRNA/NT) RNU5B-1 transcript (ZNF410 [1]): 3.60; log2(sgRNA/NT) RNU5E-1 transcript (ZNF410 [1]): 1.82; log2(sgRNA/NT) RNU6-11P transcript (ZNF410 [1]): −1.11; log2(sgRNA/NT) SCARNA18 transcript (ZNF410 [1]): −1.20; log2(sgRNA/NT) SLC2A3P1 transcript (ZNF410 [1]): −1.49; log2(sgRNA/NT) SNORD97 transcript (ZNF410 [1]): 2.29; log2(sgRNA/NT) AC104389.5 transcript (ZNF410 [2]): 1.43; log2(sgRNA/NT) AC130456.3 transcript (ZNF410 [2]): −2.03; log2(sgRNA/NT) CDKN1A transcript (ZNF410 [2]): 1.38; log2(sgRNA/NT) IFI27 transcript (ZNF410 [2]): 1.78; log2(sgRNA/NT) KDM7A transcript (ZNF410 [2]): −1.32; log2(sgRNA/NT) PKN1 transcript (ZNF410 [2]): 1.43; log2(sgRNA/NT) PRDX5 transcript (ZNF410 [2]): −1.09; log2(sgRNA/NT) RN7SL471P transcript (ZNF410 [2]): 1.60; log2(sgRNA/NT) SELENOW transcript (ZNF410 [2]): 1.67; log2(sgRNA/NT) SMOX transcript (ZNF410 [2]): −1.24; log2(sgRNA/NT) STUB1 transcript (ZNF410 [2]): 1.40; log2(sgRNA/NT) TMCC2 transcript (ZNF410 [2]): −1.69; log2(sgRNA/NT) ZNF410 transcript (ZNF410 [2]): −1.24 |
